In patent US6548543B1, “Remedies or preventives containing cyclopentenone compounds as the active ingredient” (Takara Shuzo Co., Ltd., priority 1998, dated 2003):
In brackets after ≈: the same amount, converted by molar mass. Numbered stars: 1 amine (or outer) side, 2 acyl side, 3 side chain; on linkers, the order of the positions; unused ones are H or OH. Bridge positions count the residues as written; N and C are the ends. Square brackets hold non-standard residues; d marks the D form. Peptide text beside a SMILES is read from it. I, II: the chains in the order shown. Actinocin(9to1) = Cc1c2oc3c(C)ccc(C(=O)[*:1])c3nc-2c(C(=O)[*:2])c(N)c1=O; NMeV = CN[C@H](C(=O)O)C(C)C; Sar = CNCC(=O)O

Assays:
[1] = tested on: Candida albicans TIMM0136; assay: Antifungal activity, growth inhibition; assay type: cell-based; conditions: 10 μl of solution at 100 or 500 μg/ml added to 100 μl culture, 30° C., 48 hours
Protocol: Dipropionylcyclopentenone, diisobutyrylcyclopentenone and di-2-hexenoylcyclopentenone were used to examine their antifungal activities against Candida albicans TIMM0136.
Candida albicans cells were cultured overnight in YNBG medium containing 0.67% Yeast Nitrogen Base (Difco) and 1.0% glucose (seed culture). The culture was then diluted with fresh Yeast Nitrogen Base medium to a concentration of 1×10^6 cells/ml. 100 μl of the dilution was dispensed into each well of a 96-well microtiter plate.
10 μl each of solutions of dipropionylcyclopentenone, diisobutyrylcyclopentenone or di-2-hexenoylcyclopentenone in 70% ethanol at a concentration of 100 μg/ml or 500 μg/ml, or 10 μl of 70% ethanol solution was added to the well. The plate was incubated without shaking at 30° C. for 48 hours (main culture).

[2] = tested on: Ehrlich ascites carcinoma (EAC); assay: Ascitic cancer EAC, prolongation of survival; assay type: in vivo, ddY mouse; conditions: 5 successive days; for 30-day survival number: groups of 8 mice
Protocol: (§1) (3) The carcinostatic activities of dipropionylcyclopentenone and diisobutyrylcyclopentenone against various ascitic cancers were examined using two types of cancer cells, Ehrlich ascites carcinoma (EAC) and Meth A, administered intraperitoneally or orally at a varying dose.
(§2) Dipropionylcyclopentenone or diisobutyrylcyclopentenone was intraperitoneally or orally administered for 5 successive days from the day after the transplantation with cancer cells. Injectable distilled water was administered to a control group in a similar manner. Average days of survival, prolongation rate and 30-day survival number were calculated for groups each consisting of 8 mice.

Meth A = assay: Ascitic cancer Meth A, prolongation of survival, 5 successive days; assay type: in vivo, BALB/c mouse; conditions: intraperitoneal 10 mg/kg
Protocol: as §1, §2

[3] = Single oral dose toxicity; assay type: in vivo; conditions: mouse
Protocol: No toxicity is observed when a physiologically effective amount of the cyclopentenone derivative or an optical isomer thereof, or a salt thereof obtained according to the present invention is administered.

[4] = tested on: tumor necrosis factor (TNF)-α; assay: Endotoxin shock model, serum TNF-α after LPS; assay type: in vivo, CDF1 mice; conditions: serum 1.5 hours after LPS
Protocol: (1) A model for endotoxin shock was constructed using CDF1 mice (8 weeks old, female, purchased from Japan SLC). Distilled water (control), or 10 mg/kg of diisopropionylcyclopentenone or diisobutyrylcyclopentenone was subcutaneously administered to a mouse. 20 μg of lipopolysaccharide (LPS; Sigma) was intraperitoneally administered to each mouse 30 minutes after the administration. Blood was collected from the mouse 1.5 hours after the administration with LPS. The amount of tumor necrosis factor (TNF)-α in a serum separated from the collected blood was measured using a commercially available ELISA kit (R&D). Each group consisted of 4 mice.
(2) A model for endotoxin shock was constructed by intraperitoneally administering 20 μg of LPS to a CDF1 mouse (8 weeks old, female). 30 or 100 mg/kg of dipropionylcyclopentenone or diisobutyrylcyclopentenone was orally administered 30 minutes before the administration with LPS. Blood was collected from the mouse 1.5 hours after the administration with LPS. The amount of TNF-α in a serum separated from the collected blood was measured using an ELISA kit. Each group consisted of 4 mice.

[5] = tested on: 70-kDa heat shock protein; assay: Induction of 70-kDa heat shock protein in HL-60 cells (Western blot); assay type: cell-based; set-up: key to Degree of induction of 70-kDa heat shock protein: − means that no induction was observed; ± means that a slight induction was observed; + represents the induction level; ++: Increased number of + means increased induction; +++: Increased number of + means increased induction; conditions: for Degree of induction of 70-kDa heat shock protein: HL-60, 6 hours
Protocol: (1) 5 ml of RPMI 1640 medium containing 10% fetal calf serum and HL-60 (ATCC CCL-240) cells at a concentration of 2×10^5 cells/ml was placed in each well of a 6-well plate. The plate was incubated at 37° C. for 24 hours in the presence of 5% CO2. Dipropionylcyclopentenone, diisobutyrylcyclopentenone or di-2-hexenoylcyclopentenone at a final concentration of 0, 0.63, 1.3, 2.5, 5, 10 or 20 μM was then added thereto. The incubation was continued for additional 6 hours.
After incubation, the cell number was counted. The cells were harvested by centrifugation, washed with PBS to prepare cells treated with one of the samples. Cells that were cultured in the same manner after heated at 45° C. for 10 minutes were also prepared.
These treated cells were used for SDS-PAGE according to the method as described in Molecular Cloning [Cold Spring Harbor Laboratory Press (1989)]. The treated cells were suspended in SDS-PAGE Sample buffer at a concentration of 2.5×10^6 cells/ml. The cell suspensions were treated at 100° C. for 10 minutes. 5 μl each of the cell suspensions was applied to two SDS-PAGE gels (5% stacking gel, 10% separation gel) and electrophoresed. One of the gels was subjected to Coomassie staining. The other gel was blotted onto a polyvinylidene difluoride transfer membrane (Immobilon™, Millipore, Cat. #IPVH000-10). The membrane was blocked at 4° C. overnight using Block Ace (Dainippon Pharmaceutical, Cat. #UK-B25).
The blocked membrane was reacted with a monoclonal antibody HSP72/73(Ab-1) (Oncogene Research Products, Cat. #HSP01), which specifically reacts with heat-inducible 70-kDa heat shock protein. The membrane was washed with TBS containing 0.05% Tween 20 followed by TBS. The membrane was then reacted with a peroxidase-conjugated secondary antibody HRP-Rabbit Anti-Mouse IgG (H+L) (Zymed Laboratories, Inc., Cat. #61-6520), and then washed as described above. The membrane reacted with the primary and secondary antibodies was reacted with a chemiluminol reagent Renaissance™ (Dupont NEN, Cat. #NEL-100). The membrane was then exposed to an X-ray film to confirm the induction of 70-kDa heat shock protein.

[6] = tested on: HL-60 (ATCC CCL-240) cells; assay: Viability and apoptosis of HL-60 cells (Trypan Blue, optical microscope); assay type: cell-based; conditions: 24 hours; for IC50: Homo sapiens, Trypan Blue, read-out: Viability50 (concentration that results in a viability of 50%)
Protocol: HL-60 (ATCC CCL-240) cells were cultured at 37° C. in RPMI 1640 medium (Bio Whittaker) containing 10% fetal calf serum (FCS; JRH) which had been treated at 56° C. for 30 minutes and suspended in RPMI 1640 medium at a concentration of 2.5×10^5 cells/5 ml.
10 μl each of solutions of diisobutyrylcyclopentenone, dimethoxyacetylcyclopentenone, dimethylfumarylcyclopentenone or dimethylmaleylcyclopentenone in 70% ethanol in water diluted to varying concentrations was added to 5 ml of the suspension. The mixtures were incubated at 37° C. for 24 hours in the presence of 5% Co2. 10 μl of aqueous actinomycin D (Sigma) solution (0.5 mg/ml), which is known as a reagent that induces apoptosis, was used in place of the sample and the mixture was incubated under the same conditions for confirmation.
The cultured cells were examined under an optical microscope.
Furthermore, a portion of the cells cultured as described above was stained with 0.4% Trypan Blue and examined under an optical microscope. The number of viable cells which were not stained and the number of dead cells which were stained blue were counted. The concentration of each of the samples that results in a viability of 50% (Viability50 μM) was determined.

[7] = tested on: λ-carrageenan pedal edema; assay: Carrageenan induced pedal edema; assay type: in vivo, Lewis rats; conditions: rat, 3 hours after carrageenan
Protocol: Lewis rats (male, 9 weeks old, weighing about 250 g) were purchased from Seac Yoshitomi.
Rats were fasted from 18 hours before the start of the experiments. Dipropionylcyclopentenone, dihexanoylcyclopentenone, di-2-hexenoylcyclopentenone, diisobutyrylcyclopentenone or dibenzoylcyclopentenone dissolved in olive oil (Nacalai Tesque) was orally administered to 4 rats per group at 1 or 10 mg/10 ml/kg.
100 μl of 1% λ-carrageenan (Wako Pure Chemical Industries) suspension in saline (Otsuka Pharmaceutical) was injected into the sole of right paw of a rat 0.5 hour after the administration of test substance to induce pedal edema. The volume of the right foot of the rat was measured using an instrument for measuring pedal volume (Ugo Basile) 3 hours after the injection with carrageenan. The measurements were expressed as the rate of increase calculated based on the volume of the right foot of each rat measured before the administration with carrageenan.
FIG. 5 illustrate the relationship between the amount of cyclopentenone derivative administered and the rate of increase in edema in foot. The horizontal axis represents the dose […] and the vertical axis represents the rate of increase (%).

[8] = oral, single dosage of 100 mg/kg

Molecule: CC(C)C(=O)OC1C=CC(=O)C1OC(=O)C(C)C (stereo not drawn) [Diisobutyrylcyclopentenone, diisobutyrylcyclopentenone]
- MIC ([1]; Candida albicans, TIMM0136, read-out: Minimum growth inhibitory concentration): 500 µg/mL (≈ 1970 µM)
- Average days of survival ([2]; intraperitoneal 10 mg/kg): 17.0 days
- Prolongation rate ([2]; intraperitoneal 10 mg/kg): 136%
- 30-day survival number ([2]; intraperitoneal 10 mg/kg): 0
- Average days of survival ([2]; intraperitoneal 30 mg/kg): 25.3 days
- Prolongation rate ([2]; intraperitoneal 30 mg/kg): >202%
- 30-day survival number ([2]; intraperitoneal 30 mg/kg): 3
- Average days of survival ([2]; oral 30 mg/kg): 15.1 days
- Prolongation rate ([2]; oral 30 mg/kg): 121%
- 30-day survival number ([2]; oral 30 mg/kg): 0
- Average days of survival ([2]; oral 100 mg/kg): 20.9 days
- Prolongation rate ([2]; oral 100 mg/kg): 167%
- 30-day survival number ([2]; oral 100 mg/kg): 0
- Average days of survival (Meth A): 15.5 days
- Prolongation rate (Meth A): 132%
- 30-day survival number (Meth A; groups of 8 mice): 0
- Death after single oral administration ([3]; in vivo, po, 100 mg/kg): no death was observed
- Amount of TNF mean ± SE ([4]; 10 mg/kg subcutaneous 30 minutes before LPS): 3.39 ± 0.33 ng/mL
- TNF mean ± SE ([4]; 30 mg/kg oral 30 minutes before LPS): 3.92 ± 0.13 ng/mL
- TNF mean ± SE ([4]; 100 mg/kg oral 30 minutes before LPS): 2.48 ± 0.43 ng/mL
- Concentration at which ability to induce HSP70 is maximized [5]: 2.5 µM
- Concentration at which ability to induce HSP70 is observed [5]: 1.25 µM
- Degree of induction of 70-kDa heat shock protein ([5]; 0.63 μM): ±
- Degree of induction of 70-kDa heat shock protein ([5]; 1.3 μM): +
- Degree of induction of 70-kDa heat shock protein ([5]; 2.5 μM): +++
- Degree of induction of 70-kDa heat shock protein ([5]; 5 μM): +++
- Degree of induction of 70-kDa heat shock protein ([5]; 10 μM): +
- Degree of induction of 70-kDa heat shock protein ([5]; 20 μM): +
- IC50 [6]: 8.8 µM

Molecule: COCC(=O)OC1C=CC(=O)C1OC(=O)COC (stereo not drawn) [Dimethoxyacetylcyclopentenone, dimethoxyacetylcyclopentenone]
- IC50 [6]: 14 µM

Molecule: COC(=O)/C=C/C(=O)OC1C=CC(=O)C1OC(=O)/C=C/C(=O)OC (stereo not drawn) [Dimethylfumarylcyclopentenone, dimethylfumarylcyclopentenone]
- IC50 [6]: 2.9 µM

Molecule: Cc1c2oc3c(C)ccc(C(=O)N[C@@H]4C(=O)N[C@H](C(C)C)C(=O)N5CCC[C@H]5C(=O)N(C)CC(=O)N(C)[C@@H](C(C)C)C(=O)O[C@@H]4C)c3nc-2c(C(=O)N[C@@H]2C(=O)N[C@H](C(C)C)C(=O)N3CCC[C@H]3C(=O)N(C)CC(=O)N(C)[C@@H](C(C)C)C(=O)O[C@@H]2C)c(N)c1=O [actinomycin D, reference compound] (I: T[dV]P[Sar][NMeV] / II: T[dV]P[Sar][NMeV]; ester I:1-I:C, II:1-II:C; linker I:N-II:N via Actinocin(9to1))
- Apoptosis-inducing / antiproliferation activity (condensation of nuclei, shrinking of cells, apoptotic bodies) ([6]; optical microscope): Condensation of nuclei, shrinking of cells and formation of apoptotic bodies were observed

Molecule: di-2-hexenoylcyclopentenone
- Minimum growth inhibitory concentration [1]: 500 µg/mL
- Death after single oral administration [3, 8]: no death was observed
- Suppression of edema in foot (FIG. 5) ([7]; 1 mg/kg oral): significant suppression
- Suppression of edema in foot (FIG. 5) ([7]; 10 mg/kg oral): significant suppression
- Degree of induction of 70-kDa heat shock protein ([5]; 0.63 μM): ±
- Degree of induction of 70-kDa heat shock protein ([5]; 1.3 μM): +
- Degree of induction of 70-kDa heat shock protein ([5]; 2.5 μM): ++
- Degree of induction of 70-kDa heat shock protein ([5]; 5 μM): +++
- Degree of induction of 70-kDa heat shock protein ([5]; 10 μM): ±
- Degree of induction of 70-kDa heat shock protein ([5]; 20 μM): −

Molecule: dihexanoylcyclopentenone
- Death after single oral administration [3, 8]: no death was observed
- Suppression of edema in foot (FIG. 5) ([7]; 1 mg/kg oral): significant suppression
- Suppression of edema in foot (FIG. 5) ([7]; 10 mg/kg oral): significant suppression
